Assay results as given in ChEMBL document CHEMBL1777736, “New indole amide derivatives as potent CRTH2 receptor antagonists” (Bioorg Med Chem Lett, 2011).

Columns and labels:
in vivo [1] = details: Sprague-Dawley, rat, po, 5 mg/kg
in vivo [2] = details: Sprague-Dawley, rat, iv, 1 mg/kg
in vivo [3] = details: Sprague-Dawley, rat, iv, 1 mg/kg; remark: listed apart in the source
in vivo [4] = details: Sprague-Dawley, rat

Row | SMILES | bioavailability (in vivo [1]) [%] | Vd (in vivo [2]) [L/kg] | clearance (in vivo [3]) [mL/min/kg] | half-life (in vivo [4]) [h]
1 | CN([C@@H]1CCc2c(CC(=O)O)c3ccccc3n2C1)S(=O)(=O)c1ccc(F)cc1 [MK-7246] | 138 | 1.1 |  | 
2 | C[C@@H](C(=O)N(C)[C@@H]1CCc2c(CC(=O)O)c3ccccc3n2C1)c1ccc(F)cc1 | 73 | 0.36 | 1.1 | 4.7
